Converted amounts (≈) assume the structure as drawn. Like-named read-outs stand apart in the source and are kept apart here.
How the values were obtained:
[1] = system: RKO cells; assay: Sulforhodamine B (SRB) cell viability assay, RKO; assay type: cell-based; settings: Homo sapiens, CRC cell line, 48 h, read-out: IC50 (μM) ± SD, RKO
Experimental: (§1) The cells were allowed to adhere overnight, from 12 h to 18 h, and then treated with increasing concentrations of each compound, C9, A36, and A42 (0.125 μM, 0.25 μM, 0.5 μM, 1 μM, 2.5 μM, and 5 μM), in their respective culture mediums for 48 h. In addition to a negative control that consisted only of cells and growth medium, a negative control containing the highest concentration of the solvent in which the compound was dissolved (DMSO 0.1%) was also used. The SRB assay was performed according to Marques et al.. The IC50 values were obtained using GraphPad Prism version 8.2.1 through the application of a sigmoidal dose–response nonlinear regression, after logarithmic transformation. The selectivity index was determined by dividing the IC50 value of the non-neoplastic BJ-5ta cell line by the IC50 value of the cancer cell lines (IC50 BJ-5ta/IC50 cancer cell line); furthermore, for the CRC model, a second selectivity index was also determined using the non-neoplastic NCM460 cell line (IC50 NCM460/IC50 CRC cell line). According to the results of the selectivity index, the cell line with the highest selectivity value for each of the models, CRC and breast, was selected for subsequent characterization.
(§2) Three CRC-derived cell lines, SW480 (KRAS^G12V), HCT116 (KRAS^G13D), and RKO (BRAF^V600E), harboring somatic mutations on KRAS or BRAF, and two breast-cancer-derived cell lines, MDA-MB-231 (basal like) and MCF7 (luminal A subtype), together with two non-neoplastic cell lines, NCM460 (normal colon mucosal epithelial cell line) and BJ-5ta (normal foreskin fibroblast cell line), were used to study the activity and selectivity of the three new benzo[a]phenoxazine compounds, C9, A36, and A42. All cell lines were treated with a range of drug concentrations (0.125 μM, 0.25 μM, 0.5 μM, 1 μM, 2.5 μM, and 5 μM) for 48 h, and the effect on cell viability was assessed using a sulforhodamine B assay (SRB) (Figure 2). […] In addition, the selectivity index was determined using the BJ-5ta cell line as a reference, as well as the NCM460 cell line for the CRC model (Table 1).

[2] = system: MDA-MB-231 cells; assay: Sulforhodamine B (SRB) cell viability assay, MDA-MB-231; assay type: cell-based, human; settings: for IC50: Homo sapiens, MDA-MB-231, breast cancer cell line, 48 h, SRB, read-out: IC50 (μM) ± SD, MDA-MB-231; for Selectivity Index Cell Line IC50/BJ-5ta IC50: MDA-MB-231 versus BJ-5ta
Experimental: as §1
Three CRC-derived cell lines, SW480 (KRAS^G12V), HCT116 (KRAS^G13D), and RKO (BRAF^V600E), harboring somatic mutations on KRAS or BRAF, and two breast-cancer-derived cell lines, MDA-MB-231 (basal like) and MCF7 (luminal A subtype), together with two non-neoplastic cell lines, NCM460 (normal colon mucosal epithelial cell line) and BJ-5ta (normal foreskin fibroblast cell line), were used to study the activity and selectivity of the three new benzo[a]phenoxazine compounds, C9, A36, and A42. All cell lines were treated with a range of drug concentrations (0.125 μM, 0.25 μM, 0.5 μM, 1 μM, 2.5 μM, and 5 μM) for 48 h, and the effect on cell viability was assessed using a sulforhodamine B assay (SRB) (Figure 2). The results were used to determine the IC50 value of each compound for all the cell lines (Table 1). In addition, the selectivity index was determined using the BJ-5ta cell line as a reference, as well as the NCM460 cell line for the CRC model (Table 1).

[3] = system: MCF7 cells; assay: Colony formation assay, MCF7; assay type: cell-based, human; settings: MCF7, IC50/2, 48 h treatment
Experimental: (§3) A colony formation assay was conducted on the RKO and MCF7 cell lines. In 6-well plates, 600 cells/mL and 800 cells/mL RKO and MCF7 cells, respectively, were seeded. Adherent cells were treated with the compounds C9, A36, and A42 at IC50/2 and IC50 concentrations or 0.1% DMSO (vehicle). As a control, untreated cells were used. Following a 48 h incubation period, the cells were twice rinsed with PBS 1× before being supplemented with new medium. After that, the cells were given 10–14 days to grow (new medium was added every 3 days). Following a PBS 1× rinse, the colonies were fixed for 30 min using 0.5% crystal violet and 6% glutaraldehyde. The ImageJ software (V1.53) was used to calculate the number of colonies. The percentage of colonies was determined and normalized for the untreated control.

[4] = system: BJ-5ta cells; assay: Sulforhodamine B (SRB) cell viability assay, BJ-5ta; assay type: cell-based; settings: Homo sapiens, non-neoplastic cell line, 48 h, read-out: IC50 (μM) ± SD, BJ-5ta
Experimental: as §1, §2

[5] = system: RKO cells; assay: Cell proliferation by CFSE (flow cytometry), RKO; assay type: cell-based, human; settings: IC50 and 2 × IC50, 24 h, 48 h, 72 h
Experimental: (§4) RKO and MCF7 cell proliferation was evaluated through flow cytometry using the Carboxyfluorescein Diacetate Succinimidyl Ester (CFSE) probe. Confluent cells were collected, rinsed with PBS 1×, and incubated with 5 μM of CFSE for 15 min at 37 °C. Then, the cells were rinsed, resuspended in growth medium, and seeded in 12-well plates at 1 × 10^5 cells/mL. After 24 h, adherent cells were treated with compounds C9, A36, and A42 at IC50 and 2 × IC50 concentrations or 0.1% DMSO (vehicle). Untreated cells were used as controls. The cells were harvested at different time points of 0 h, 24 h, […], and 72 h. The cells were then analyzed in a flow cytometer and the CFSE median fluorescence intensity was quantified using the FITC-A channel. All median values were normalized to the time point 0 h.
(§5) The benzo[a]phenoxazines C9, A36, and A42 were tested for their capacity to decrease cell growth using an optimized flow cytometry Carboxyfluorescein Diacetate Succinimidyl Ester (CFSE) labeling procedure. This procedure enables the differentiation of successive rounds of cell division, since the CFSE probe is uniformly distributed among daughter cells during cell division. As a result, a decrease in green CFSE fluorescence was employed as an indicator of cell proliferation.

[6] = system: SW480 cells; assay: Sulforhodamine B (SRB) cell viability assay, SW480; assay type: cell-based; settings: Homo sapiens, CRC cell line, 48 h, read-out: IC50 (μM) ± SD, SW480
Experimental: as §1, §2

[7] = system: S. cerevisiae; settings: yeast S. cerevisiae, microdilution; cited from earlier work
[8] = system: HCT116 cells; assay: Sulforhodamine B (SRB) cell viability assay, HCT116; assay type: cell-based; settings: Homo sapiens, HCT-116, CRC cell line, 48 h, read-out: IC50 (μM) ± SD, HCT116
Experimental: as §1, §2

[9] = system: MCF7 cells; assay: Cell proliferation by CFSE (flow cytometry), MCF7; assay type: cell-based, human
Experimental: as §4, §5

[10] = system: NCM460 cells; assay: Sulforhodamine B (SRB) cell viability assay, NCM460; assay type: cell-based; settings: Homo sapiens, non-neoplastic cell line, 48 h, read-out: IC50 (μM) ± SD, NCM460
Experimental: as §1, §2

[11] = system: MCF7 cells; assay: Sulforhodamine B (SRB) cell viability assay, MCF7; assay type: cell-based; settings: Homo sapiens, breast cancer cell line, 48 h, read-out: IC50 (μM) ± SD, MCF7
Experimental: as §1, §2

[12] = system: MCF7 cells; assay: Annexin V/PI assay (flow cytometry), MCF7; assay type: cell-based, human; settings: MCF7, 2 × IC50 and 4 × IC50, 48 h
Experimental: (§6) RKO and MCF7 cells were seeded in 12-well plates at a density of 1 × 10^5 cells/mL. After 24 h, the cells were treated with C9, A36, and A42 at 2 × IC50 and 4 × IC50 concentrations or 0.1% DMSO (vehicle). Untreated cells were used as controls. After 48 h, floating and adherent cells were collected. The cells were resuspended in […] of binding buffer and treated for 15 min in the dark with 5 μL of Annexin V-FITC (Detection Kit-ab14085) and 5 μL of Propidium Iodide (50 μg/mL). The samples were subjected to flow cytometry analysis, PI fluorescence was detected using the ECD-A channel, and Annexin V fluorescence was detected using the FITC-A channel.
(§7) One of the main goals of clinical oncology is the development of compounds and treatments capable of selectively eliminating cancer cells. In this sense, we next evaluated the capability of the compounds to induce cell death in both cell lines. For this, we performed a flow cytometry analysis using annexin V-FITC and propidium iodide PI double staining. The conjugation of these two probes allowed for the discrimination of viable (negative for both), early apoptotic (annexin + and PI−), late apoptotic (annexin+ and PI+), and necrotic (annexin− and PI+) cells. […] Both flouting and attached cells were harvested and double stained.

[13] = system: RKO cells; assay: Colony formation assay, RKO; assay type: cell-based, human; settings: 10-14 days growth
Experimental: as §3

[14] = system: RKO cells; assay: Annexin V/PI assay (flow cytometry), RKO; assay type: cell-based, human; settings: 2 × IC50 and 4 × IC50, 48 h
Experimental: as §6, §7

[15] = system: MCF7 cells; parameters: method as in PMID 36614056; settings: lead compound, breast cancer cell line; read-out: IC50 (μM) ± SD, MCF7; cited from earlier work
[16] = system: MDA-MB-231 cells; parameters: method as in PMID 36614056; settings: lead compound, breast cancer cell line; read-out: IC50 (μM) ± SD, MDA-MB-231; cited from earlier work
[17] = system: SW480 cells; parameters: method as in PMID 36614056; settings: lead compound, CRC cell line; read-out: IC50 (μM) ± SD, SW480; cited from earlier work
[18] = system: NCM460 cells; parameters: method as in PMID 36614056; settings: lead compound, non-neoplastic cell line; read-out: IC50 (μM) ± SD, NCM460; cited from earlier work
[19] = system: BJ-5ta cells; parameters: method as in PMID 36614056; settings: lead compound, non-neoplastic cell line; read-out: IC50 (μM) ± SD, BJ-5ta; cited from earlier work
[20] = system: HCT116 cells; parameters: method as in PMID 36614056; settings: lead compound, CRC cell line; read-out: IC50 (μM) ± SD, HCT116; cited from earlier work
[21] = system: RKO cells; parameters: method as in PMID 36614056; settings: lead compound, CRC cell line; read-out: IC50 (μM) ± SD, RKO; cited from earlier work

In the case of `CCCNc1cc2oc3cc(=[N+](CCC)CCC)ccc-3nc2c2ccccc12` [A36], the IC50 [1] is reported as 0.37 ± 0.03 µM, the IC50 [2] is reported as 1.01 ± 0.09 µM and the “Selectivity Index Cell Line IC50/BJ-5ta IC50” value [2] is reported as 2.41. The Colonies detected [3] was “reduced number of small colonies”, the IC50 [4] was 2.44 ± 0.18 µM and the “Effect on cell proliferation (CFSE)” value [5] was “highest effect”. The IC50 [6] was 0.72 ± 0.03 µM, the “MIC (minimum inhibitory concentration)” value [7] was 1.56 µM and the IC50 [8] was 1.28 ± 0.06 µM. The “CFSE median fluorescence normalized to T0” value ([9]; MCF7, 2 × IC50, 24 h (untreated 37%)) was 62%, the “CFSE median fluorescence normalized to T0” value ([9]; MCF7, 2 × IC50, 48 h (untreated 21%)) was 59% and the “CFSE median fluorescence normalized to T0” value ([9]; MCF7, 2 × IC50, 72 h (untreated 10%)) was 47%. The “Effect on cell proliferation (CFSE)” value ([9]; MCF7, IC50 and 2 × IC50, 24 h, 48 h, 72 h) was “highest effect”, the “CFSE median fluorescence normalized to T0” value ([9]; MCF7, IC50 concentration, 24 h (untreated 37%)) was 53% and the “CFSE median fluorescence normalized to T0” value ([9]; MCF7, IC50 concentration, 48 h (untreated 21%)) was 50%. The “CFSE median fluorescence normalized to T0” value ([9]; MCF7, IC50 concentration, 72 h (untreated 10%)) was 41%, the IC50 [10] was 2.06 ± 0.25 µM and the IC50 [11] was 0.63 ± 0.05 µM.
In the case of `ClCCCN=c1cc2oc3c4c5c(cc3nc-2c2ccccc12)CCCN5CCC4` [A42], the IC50 [1] is reported as 0.29 ± 0.01 µM, the IC50 [2] is reported as 0.79 ± 0.03 µM and the “Selectivity Index Cell Line IC50/BJ-5ta IC50” value [2] is reported as 3.26. For the same compound, the Colonies detected [3] was “reduced number of small colonies”, the IC50 [4] was 2.58 ± 0.19 µM and the IC50 [6] was 0.78 ± 0.07 µM. The “MIC (minimum inhibitory concentration)” value [7] was 0.78 µM (≈ 0.326 µg/mL), the “Cell death induction (Annexin V/PI)” value [12] was “most powerful compounds” and the “Reduction of the colonies formed” value ([13]; IC50, 48 h treatment) was > 90%. The “Reduction of the colonies formed” value ([13]; IC50/2, 48 h treatment) was “more than 75%”, the IC50 [8] was 1.13 ± 0.07 µM and the “Cell death induction (Annexin V/PI)” value [14] was “most powerful compounds”. For the same compound, the IC50 [10] was 2.59 ± 0.31 µM and the IC50 [11] was 0.54 ± 0.02 µM.
In the case of `CCN=c1cc2oc3cc(NCCCC(=O)OCC)c4ccccc4c3nc-2cc1C` [BaP1], the IC50 [15] is listed as 0.92 ± 0.07 µM, the “Selectivity Index Cell Line IC50/BJ-5ta IC50” value [2] is listed as 1.05 and the IC50 [16] is listed as 1.73 ± 0.03 µM. For the same compound, the “MIC (minimum inhibitory concentration)” value [7] was 25 µM (≈ 10.4 µg/mL), the IC50 [17] was 5.6 ± 0.19 µM and the IC50 [18] was 12.8 ± 2.05 µM. The IC50 [19] was 1.83 ± 0.06 µM, the IC50 [20] was 1.9 ± 0.09 µM and the IC50 [21] was 1.4 ± 0.08 µM.
